Data on ten molecules can be found in patent publication US5521167A, “Cyclopentanperhydrophenanthren-17β-(hydroxy or alkoxy)-17α-(Aryl or heterocyclyl)-3β-derivatives active on the cardiovascular system, and pharmaceutical compositions containing same” (Sigma-Tau Industrie Farmceutiche Riunite S.p.A., priority 1992, dated 1996).

The target of experiment [1] is T1, Na^+,K^+ -ATPase (Canis lupus familiaris, UniProt P50997).
T1 construct: Na^+,K^+ -ATPase receptor purified according to Jorghensen; from tissue
Briefly: displacement of the specific ^3 H-ouabain binding from the purified Na^+,K^+ -ATPase receptor. From the text:
(§1) To test the affinity for the receptor site of the Na^+,K^+ -ATPase and the agonist or antagonist activity on the enzyme, the following tests were used: a) displacement of the specific ^3 H-ouabain binding from the Na^+,K^+ -ATPase receptor purified according to Jorghensen (Jorghensen P., BBA, 1974, 356, 36) and Erdmann ( Erdmann E. et al., Arzneim. Forsh., 1984, 34, 1314); b) inhibition of the activity of the purified Na^+,K^+ -ATPase measured as % of hydrolysis of ^32 P-ATP in presence and in absence of the tested compound (Doucet A. et al., Am. J. Physiol., 1986, 251, F851). The ability of these compounds to lower blood pressure in adult hypertensive MHS rats was tested according to the following scheme: systolic blood pressure (SBP) and heart rate (HR) were measured by an indirect tail-cuff method in three-month old hypertensive MHS rats before starting with the treatment (basal values). The rats were then subdivided in two groups of 7 animals each, one receiving the compound and the other, the control group, receiving only the vehicle. The compound was orally daily given, suspended in Methocel 0.5% (w/v), for ten days. SBP and HR were measured daily 6 and 24 hours after the treatment.

Experiment [2] has as its target T1, Na^+,K^+ -ATPase. Briefly: inhibition of the activity of the purified Na^+,K^+ -ATPase measured as % of hydrolysis of ^32 P-ATP. Type of experiment: biochemical.
Excerpt: as §1

Experiment [3] deals with hypertensive MHS rats. Briefly: systolic blood pressure and heart rate in hypertensive MHS rats (indirect tail-cuff, ten-day oral treatment). The class given is in vivo, rat. Particulars: 20 mg/Kg/os daily for ten days, in METHOCEL 0.5% w/v, 7 rats; for SYSTOLIC BLOOD PRESSURE FALL IN SPONTANEOUS HYPERTENSIVE RATS (MHS), SBP: controls 171 +/- 4.5; for HR: controls 384 +/- 11.0.
Excerpt: as §1
After ten-day treatment, washout was started for at least two days, to verify whether the treatment maintained SBP low or reestablished the basal values.

[4] abbreviates: ^3 H-ouabain displacement, purified Na^+,K^+ -ATPase, read-out: Binding ^3 H-Ouab. Displacement log IC50 (converted).
The mark [5] stands for this setting: hydrolysis of ^32 P-ATP, purified Na^+,K^+ -ATPase, read-out: Inhibitory Activity log IC50 (converted).

As to `C[C@]12CC[C@H](OCCN3CCCC3)C[C@H]1CC[C@@H]1[C@@H]2CC[C@@]2(C)[C@H]1CC[C@@]2(OCCN1CCCC1)c1ccoc1` [Comp. I-ad, 3β17β-Bis(2-(1-pyrrolidinyl)ethoxy)-17α-(3-furyl)-5β-androstane], the IC50 in experiment [1] (setting [4]) was 398 nM; in experiment [2], 3160 nM.

As for `C[C@]12CC[C@H](OCCCN)C[C@@H]1CC[C@@H]1[C@@H]2CC[C@@]2(C)[C@H]1CC[C@@]2(O)c1ccoc1` [Comp. I-ai, 3β-(3-Aminopropoxy)-17α-(3-furyl)-androstan-17β-ol], the results for the half-inhibitory concentration (IC50) in experiment [1] and in experiment [2] (setting [5]) were 251 nM and 1580 nM, respectively.

`C[C@]12CC[C@H](OCCN3CCCC3)C[C@@H]1CC[C@@H]1[C@@H]2CC[C@@]2(C)[C@H]1CC[C@@]2(OCCN1CCCC1)c1ccoc1` [Comp. I-ak, 3β, 17β-Bis(2-(1-pyrrolidinyl)ethoxy)-17α-(3-furyl)-androstane]: the IC50 in experiment [1] (setting [4]) was 398 nM; in experiment [2], 5010 nM.

Consider `C[C@]12CC[C@H](OCCOCCN3CCCC3)C[C@@H]1CC[C@@H]1[C@@H]2CC[C@@]2(C)[C@H]1CC[C@@]2(O)c1ccoc1` [Comp. I-al, 3β-(2-(2(1-Pyrrolidinyl)ethoxyy)ethoxy)-17α-(3-furyl)-androstan-17β-ol], for which the IC50 in experiment [1] (setting [4]) is 501 nM; in experiment [2] (setting [5]) it was 1580 nM.

In the case of `C[C@]12CC[C@H](OCCOCCN3CCCC3)C[C@@H]1CC[C@@H]1[C@@H]2CC[C@@]2(C)[C@H]1CC[C@@]2(OCCN)c1ccoc1` [Comp. I-am, 3β-(2-(2-(1-Pyrrolidinyl)ethoxy)ethoxy)-17β-(2-aminoethoxy)-17α-(3-furyl)-androstane], in experiment [1] (setting [4]), the half-inhibitory concentration (IC50) was 200 nM. Also, the IC50 in experiment [2] (setting [5]) is 1580 nM. In addition, in experiment [3], the “SYSTOLIC BLOOD PRESSURE FALL IN SPONTANEOUS HYPERTENSIVE RATS (MHS), SBP” value is given as 153 +/- 5.1 mm Hg and the HR is listed as 378 +/- 8.5 beats/min.

Take `C[C@]12CC[C@H](OCCOCCN3CCCC3)C[C@@H]1CC[C@@H]1[C@@H]2CC[C@@]2(C)[C@H]1CC[C@@]2(OCCN1CCCC1)c1ccoc1` [Comp. I-an, 3β-(2-(2-(1-Pyrrolidinyl)ethoxy)ethoxy)-17β-(2-(1-pyrrolidinyl)ethoxy)-17α-(3-furyl)-androstane]: in experiment [3], the “SYSTOLIC BLOOD PRESSURE FALL IN SPONTANEOUS HYPERTENSIVE RATS (MHS), SBP” value is on record as 152 +/- 5.0 mm Hg and the HR is reported as 375 +/- 9.0 beats/min.

In the case of `C[C@]12CC[C@H](OCCOCCN3CCCC3)C=C1CC[C@@H]1[C@@H]2CC[C@@]2(C)[C@H]1CC[C@@]2(OCCN)c1ccoc1` [Comp. I-aq, 3β-(2-(2-(1-Pyrrolidinyl)ethoxy)ethoxy)-17α-(2-aminoethoxy)-17α-(3-furyl)-androst-4-ene], the concentration for half-maximal inhibition (IC50) in experiment [1] (setting [4]) is 316 nM. Further, half-maximal inhibition in experiment [2] (IC50) was put at 2510 nM. In experiment [3], the “SYSTOLIC BLOOD PRESSURE FALL IN SPONTANEOUS HYPERTENSIVE RATS (MHS), SBP” value was 148 +/- 3.2 mm Hg and the HR is given as 388 +/- 12.0 beats/min.

For the molecule `C[C@]12CC[C@H](OCCOCCN3CCCC3)CC1=CC[C@@H]1[C@@H]2CC[C@@]2(C)[C@H]1CC[C@@]2(OCCN1CCCC1)c1ccoc1` [Comp. I-ay, 3β-(2-(2-(1-pyrrolidinyl)ethoxy)ethoxy)-17β-(2-(1-pyrrolidinyl)ethoxy)-17α-(3furyl)-androst-5-ene], in experiment [1] (setting [4]), the 50% inhibitory concentration (IC50) was 398 nM. Further, in experiment [2] (setting [5]), the 50% inhibitory concentration (IC50) was 1580 nM. For the same molecule, in experiment [3], the “SYSTOLIC BLOOD PRESSURE FALL IN SPONTANEOUS HYPERTENSIVE RATS (MHS), SBP” value is reported as 149 +/- 4.8 mm Hg and the HR is recorded as 395 +/- 10.0 beats/min.

`C[C@]12CC[C@H](SCCOCCN3CCCC3)C[C@@H]1CC[C@@H]1[C@@H]2CC[C@@]2(C)[C@H]1CC[C@@]2(OCCN1CCCC1)c1ccoc1` [Comp. I-ca, 3β-(2-(2-(1-Pyrrolidinyl)ethoxy)ethylthio)-17β-(2-(1-pyrrolidinyl)ethoxy)-17α-(3-furyl)-androstane]: the results for the IC50 in experiment [1] (setting [4]) and in experiment [2] (setting [5]) were 316 nM and 2000 nM, respectively.

In turn, `C[C@]12CC[C@H](O)C[C@H]1CC[C@@H]1[C@@H]2CC[C@]2(C)[C@@H](c3ccoc3)CC[C@]12O` [Ref. comp., 17β-(3-furyl)-5β-androstane-3β, 14β-diol, reference compound] gave a concentration for half-maximal inhibition (IC50) in experiment [1] of 501 nM. In experiment [2], this molecule gave a 50% inhibitory concentration (IC50) of 2000 nM. Also, in experiment [3], the “SYSTOLIC BLOOD PRESSURE FALL IN SPONTANEOUS HYPERTENSIVE RATS (MHS), SBP” value is recorded as 173 +/- 4.0 mm Hg and the HR is 380 +/- 10.0 beats/min.

What is called IC50 is the concentration at which inhibition is half-maximal.
